Legend:
[1] = test system: Viola arvensis, Bromus spp., Lolium spp., Agropyron repens and Urtica urens; conditions: reported by Hoechst et al., 1991; cited from earlier work
Brachiaria decumbens = experiment: Greenhouse post-emergence herbicidal efficacy, % weed control; assay type: in vivo
Source text: (§1) This effectiveness of all treatments can be evaluated according to Colby's equation. In the Colby's equation given below, E is the expected efficacy of combination of L-glufosinate, salts, esters, or combinations thereof, and an herbicide of the phenoxypropionic herbicide class, • X is the observed efficacy of L-glufosinate, salts, esters, or combinations thereof and • Y is the observed efficacy of the herbicide of the phenoxypropionic herbicide class.
(§2) Observed efficacy values i.e. X and Y are % weed control for L-glufosinate, salts, esters, or combinations thereof and an herbicide of the phenoxypropionic herbicide class. If observed efficacy of combination of L-glufosinate, salts, esters, or combinations thereof and the herbicide of the phenoxypropionic herbicide class is greater than its expected efficacy, then combination is determined to be synergistic. If observed efficacy is equal to or less than expected efficacy, then combination is determined to be non-synergistic.
(§3) Methodology: Greenhouse trials were carried out to evaluate the efficacy of the combination of L-glufosinate ammonium and phenoxypropionic herbicides—haloxyfop, quizalofop-ethyl, quizalofop-P-tefuryl—on weeds Eleusine indica, Brachiaria decumbens, Spermacoce latifolia and Glycine max.
(§4) The soil used was sandy clay loam-Sand: 68.0%; Silt: 8.0%; Clay: 24.0%.
(§5) All treatments were in 4 replications per treatment with a spray volume of […].
(§6) The expected efficacy of a combination of L-glufosinate and the other herbicides was calculated using the well-established Colby method. Any difference between the observed and “expected” efficacy could be attributed to synergy between the two compounds. (Colby, S. R., Weeds, 1967 (15), p. 20-22).
Experiment was conducted to assess the efficacy herbicidal combination comprising L-glufosinate ammonium (glufosinate-p-ammonium) and haloxyfop to control the weed, Brachiaria decumbens.
The percentage efficacy was calculated after 7, 14 days of application (DAA). The target weed was Brachiaria decumbens, and the concentration of the herbicide and the results are recorded in the table 1 below:
Experiment was conducted to assess the efficacy herbicidal combination comprising L-glufosinate ammonium (glufosinate-p-ammonium) and quizalofop-ethyl to control the weed, Brachiaria decumbens.
The percentage efficacy was calculated after 28 and 35 days of application (DAA). The target weed was Brachiaria decumbens, and the concentration of the herbicide and the results are recorded in the table 2 below:
Experiment was conducted to assess the efficacy herbicidal combination comprising L-glufosinate ammonium (glufosinate-p-ammonium) and quizalofop-P-tefuryl to control the weed, Brachiaria decumbens.
The percentage efficacy was calculated after 14, 21, 28, 35 days of application (DAA). The target weed was Brachiaria decumbens, and the concentration of the herbicide and the results are recorded in the table 3 below: […]

Eleusine indica = experiment: as above; assay type: in vivo; conditions: for Control %: Table 6, L-glufosinate ammonium 150, quizalofop-p-tefuryl 25 g/ha
Source text: as §1, §2, §3, §4, §5, §6
Experiment was conducted to assess the efficacy herbicidal combination comprising L-glufosinate ammonium (glufosinate-p-ammonium) and haloxyfop to control the weed, Eleusine indica.
The percentage efficacy was calculated after 7 days of application (DAA). The target weed was Eleusine indica, and the concentration of the herbicide and the results are recorded in the table 4 below:
Experiment was conducted to assess the efficacy herbicidal combination comprising L-glufosinate ammonium (glufosinate-p-ammonium) and quizalofop-ethyl to control the weed, Eleusine indica.
The percentage efficacy was calculated after 21 days of application (DAA). The target weed was Eleusine indica, and the concentration of the herbicide and the results are recorded in the table 5 below:
Experiment was conducted to assess the efficacy herbicidal combination comprising L-glufosinate ammonium (glufosinate-p-ammonium) and quizalofop-P-tefuryl to control the weed, Eleusine indica.
The percentage efficacy was calculated after 21, 28, 35 days of application (DAA). The target weed was Eleusine indica, and the concentration of the herbicide and the results are recorded in the table 6 below: […]

Spermacoce latifolia = experiment: as above; assay type: in vivo; conditions: Table 7, L-glufosinate ammonium 150, haloxyfop 50 g/ha
Source text: as §1, §2, §3, §4, §5, §6
Experiment was conducted to assess the efficacy herbicidal combination comprising L-glufosinate ammonium (glufosinate-p-ammonium) and haloxyfop to control the weed, Spermacoce latifolia.
The percentage efficacy was calculated after 7, 14, 21, 28, 35 days of application (DAA). The target weed was Spermacoce latifolia, and the concentration of the herbicide and the results are recorded in the table 7 below: […]

Glycine max = experiment: as above; assay type: in vivo; conditions: for % control: Table 8, L-glufosinate ammonium 150, haloxyfop 50 g ai/ha
Source text: as §1, §2, §3, §4, §5, §6
Experiment was conducted to assess the efficacy herbicidal combination comprising L-glufosinate ammonium (glufosinate-p-ammonium) and haloxyfop to control the weed, Glycine max.
The percentage efficacy was calculated after 3, 7, 14, 21, 28, 35 days of application (DAA). The target weed was Glycine max, and the concentration of the herbicide and the results are recorded in the table 8 below:
Experiments were conducted to assess the efficacy of herbicidal combination comprising L-glufosinate ammonium (glufosinate-p-ammonium) and quizalofop-ethyl to control the weedy Glycine max.
The percentage efficacy was calculated after 3, 28 and 35 days of applications (DAA). The target weed was Glycine max, and the concentration of the herbicide and the results are recorded in the table 9 below:
Experiments were conducted to assess the efficacy of herbicidal combination comprising L-glufosinate ammonium (glufosinate-p-ammonium) and quizalofop-p-tefuryl to control the weedy Glycine max.
The percentage efficacy was calculated after 3, 28 and 35 days of applications (DAA). The target weed was Glycine max, and the concentration of the herbicide and the results are recorded in the table 10 below.

[2] = Table 1, 7 DAA, L-glufosinate ammonium 150, haloxyfop 50 g a.i./ha
[3] = Table 1, 14 DAA, L-glufosinate ammonium 150, haloxyfop 50 g a.i./ha
[4] = Table 4, 7 DAA, L-glufosinate ammonium 150, haloxyfop 50 g ai/ha
[5] = Table 2, 28 DAA, L-glufosinate ammonium 150, quizalofop-ethyl 25 g a.i./ha
[6] = Table 2, 35 DAA, L-glufosinate ammonium 150, quizalofop-ethyl 25 g a.i./ha
[7] = Table 3, 14 DAA, L-glufosinate ammonium 150, quizalofop-p-tefuryl 25 g/ha
[8] = Table 3, 21 DAA, L-glufosinate ammonium 150, quizalofop-p-tefuryl 25 g/ha
[9] = Table 3, 28 DAA, L-glufosinate ammonium 150, quizalofop-p-tefuryl 25 g/ha
[10] = Table 3, 35 DAA, L-glufosinate ammonium 150, quizalofop-p-tefuryl 25 g/ha
[11] = Table 5, 21 DAA, L-glufosinate ammonium 150, quizalofop-ethyl 25 g ai/ha
[12] = Table 9, 3 DAA, L-glufosinate ammonium 150, quizalofop-ethyl 25 g/ha
[13] = Table 9, 28 DAA, L-glufosinate ammonium 150, quizalofop-ethyl 25 g/ha
[14] = Table 9, 35 DAA, L-glufosinate ammonium 150, quizalofop-ethyl 25 g/ha
[15] = Table 10, 3 DAA, L-glufosinate ammonium 150, quizalofop-p-tefuryl 25 g/h
[16] = Table 10, 28 DAA, L-glufosinate ammonium 150, quizalofop-p-tefuryl 25 g/h
[17] = Table 10, 35 DAA, L-glufosinate ammonium 150, quizalofop-p-tefuryl 25 g/h

Structure (SMILES)	Control % (Brachiaria decumbens; [2]) [%]	Control % (Brachiaria decumbens; [3]) [%]	% control (Eleusine indica; [4]) [%]	Control % (Spermacoce latifolia; 7 DAA) [%]	Control % (Spermacoce latifolia; 14 DAA) [%]	Control % (Spermacoce latifolia; 21 DAA) [%]	Control % (Spermacoce latifolia; 28 DAA) [%]	Control % (Spermacoce latifolia; 35 DAA) [%]	% control (Glycine max; 3 DAA) [%]	% control (Glycine max; 7 DAA) [%]	% control (Glycine max; 14 DAA) [%]	% control (Glycine max; 21 DAA) [%]	% control (Glycine max; 28 DAA) [%]	% control (Glycine max; 35 DAA) [%]	Control % (Brachiaria decumbens; [5]) [%]	Control % (Brachiaria decumbens; [6]) [%]	Control % (Brachiaria decumbens; [7]) [%]	Control % (Brachiaria decumbens; [8]) [%]	Control % (Brachiaria decumbens; [9]) [%]	Control % (Brachiaria decumbens; [10]) [%]	also measured
CP(=O)(O)CCC(N)C(=O)O (racemic) [glufosinate, DL-homoalanin-4-yl(methyl)phosphinic acid]																					control of weed species [1]: either not combated, or only weakly combated
CC(Oc1ccc(Oc2ncc(C(F)(F)F)cc2Cl)cc1)C(=O)O (stereo not shown) [Haloxyfop, haloxyfop]	26.7	75.3	25	8	8.7	10	31	9.3	5	13.3	15	12.3	12.3	12.3							
CP(=O)(O)CC[C@H](N)C(=O)O.N [L-glufosinate ammonium, ammonium (2S)-2-amino-4-(methylphosphinato)butyric acid]	50	79.3	50.7	31.7	81.7	83.3	83.3	83.3	15	53.3	71	66.7	56.7	41.7	60	55	75	70	60	55	% control (Eleusine indica; [11]): 35%; Control % (Eleusine indica; 21 DAA): 25%; Control % (Eleusine indica; 28 DAA): 20%; Control % (Eleusine indica; 35 DAA): 18%; Control % (Glycine max; [12]): 50%; Control % (Glycine max; [13]): 40%; Control % (Glycine max; [14]): 40%; Control % (Glycine max; [15]): 50%; Control % (Glycine max; [16]): 60%; Control % (Glycine max; [17]): 55%
CCOC(=O)C(C)Oc1ccc(Oc2cnc3cc(Cl)ccc3n2)cc1 (stereo not shown) [quizalofop-ethyl]															35	30					% control (Eleusine indica; [11]): 95%; Control % (Glycine max; [12]): 0%; Control % (Glycine max; [13]): 0%; Control % (Glycine max; [14]): 0%
C[C@@H](Oc1ccc(Oc2cnc3cc(Cl)ccc3n2)cc1)C(=O)OCC1CCCO1 (stereo partly shown) [quizalofop-p-tefuryl]																	20	10	5	5	Control % (Eleusine indica; 21 DAA): 10%; Control % (Eleusine indica; 28 DAA): 5%; Control % (Eleusine indica; 35 DAA): 5%; Control % (Glycine max; [15]): 0%; Control % (Glycine max; [16]): 0%; Control % (Glycine max; [17]): 0%
